Laboratory results reported in patent US20090105217A1, “2-PHENYL-5-AMINO-1,3,4-OXADIAZOLES AND THEIR USE AS NICOTINIC ACETYLCHOLINE RECEPTOR LIGANDS” (priority 2007, published 2009).
Structures can show the parent of a compound that is named as a salt.

Biological target: T1, human α7 nAChR (Homo sapiens, UniProt P36544)
T1 construct: host or cells: GH4C1 cells (pituitary tumor, immortalized cell line)
Assay: α7 nAChR FLIPR (Fluorometric Imaging Plate Reader) Ca2+ assay, agonist EC50
Assay type: cell-based
Conditions: for EC50: GH4C1 cells stably transfected with human α7 nAChR, Fluo-4 Ca2+ fluorescence, Examples 194 to 205 tested as the HCl salt, read-out: pEC50 value (negative logarithm of the agonist EC50) (converted)
Experimental: α7 nAChR FLIPR® (Fluorometric Imaging Plate Reader) Assay
Function of the heterologous expressed α7 nAChR was assessed by a FLIPR-Ca^2+ assay. Since nAChRs are non-selective cation channels with high permeability to Ca^2+, these studies were carried out by measuring changes of intracellular Ca^2+ concentration using the Ca^2+-chelating fluorescent dye Fluo-4 and FLIPR® (Fluorometric Imaging Plate Reader) technology.
GH4C1cells (pituitary tumor, immortalized cell line) stably transfected with human α7 nAChR (Biocat ID 96986), were thawed, suspended in growth medium (Ham's Nutrient Mixture F10—Ham's F10, Invitrogen 31550-023, 15% Horse Serum heat inactivated—Invitrogen 26050-047, 2.5% Foetal Bovine Serum—FBS, Gibco 10500-064, 200 μg/ml Hygromycin B—Invitrogen, 10687-010, 10 mg/L Phenol Red—Sigma, P 0290, 1 mM Glutamine—Invitrogen, 25030-024) and plated in 500 cm^2 Triple Flask.
Cells were then incubated at 30° C., 5% CO2 for 72 hours.
On the day of the experiment, cells were washed twice with Assay Buffer (AB) (145 mM NaCl, 5 mM KCl, 1 mM MgCl2, 2 mM CaCl2, 20 mM HEPES, 5.5 mM Glucose pH=7.3) containing 2.5 mM Probenecid. Changes in the intracellular Ca^2+ content of stably transfected cells were measured using the Ca^2+ chelating dye Fluo-4 (Tef Labs 0152) in conjunction with a FLIPR® (Molecular Devices). The cell permeant dye Fluo-4 was prepared to a concentration of 1 mM in 100% DMSO and 10% Pluronic acid. The dye was then diluted with AB to a final concentration of 2 μM and placed on the cells. After 45-60 minutes dye loading incubation at 37° C., the unincorporated dye was removed from the cells by washing (80 μL, 3 times) with AB, and a final volume of 30 μL/well of AB was left in each well.
Plates containing test compounds (dissolved in 100% DMSO at 2 mM and serially diluted with DMSO) were copied into “daughter” plates (1 μL/well dispensation). Just prior to starting the assay, the “daughter” plate was diluted with 50 μL/well of AB.
The plates were then placed in the FLIPR®, and cell fluorescence was determined before drug addition (30 seconds) and monitored (excitation 488 nm, emission 510-580 nm) immediately following exposure to compounds. Maximum fluorescence values were recorded and fitted for agonist EC50 calculations.
The results are expressed as pEC50 values. A pEC50 is the negative logarithm of the agonist EC50 calculation as determined in the α7 nAChR FLIPR® assay. […] Variations in pEC50 may arise between tests.

T1 sequence (P36544 23-502): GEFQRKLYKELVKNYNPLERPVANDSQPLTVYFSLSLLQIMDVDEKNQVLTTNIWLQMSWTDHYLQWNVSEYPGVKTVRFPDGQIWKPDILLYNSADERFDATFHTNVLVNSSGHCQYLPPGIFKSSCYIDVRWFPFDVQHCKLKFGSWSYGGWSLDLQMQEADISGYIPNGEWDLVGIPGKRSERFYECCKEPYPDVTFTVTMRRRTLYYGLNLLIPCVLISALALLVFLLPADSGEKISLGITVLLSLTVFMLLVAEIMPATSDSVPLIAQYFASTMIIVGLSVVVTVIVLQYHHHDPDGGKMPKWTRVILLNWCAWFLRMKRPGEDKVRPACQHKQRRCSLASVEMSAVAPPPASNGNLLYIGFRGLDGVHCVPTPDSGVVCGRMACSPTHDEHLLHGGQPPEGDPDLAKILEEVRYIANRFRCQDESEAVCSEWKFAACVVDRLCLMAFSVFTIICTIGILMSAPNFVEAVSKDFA

| activity in the alpha 7 assay (alpha 7 assay described in the Examples) | EC50 [µM] | SMILES |
| --- | --- | --- |
| – | ≤ 1 | O=C(Nc1ccc(-c2nnc(NCCCN3CCCCC3)o2)cc1)c1cccs1 [Example 8, N-[4-(5-{[3-(1-Piperidinyl)propyl]amino}-1,3,4-oxadiazol-2-yl)phenyl]-2-thiophenecarboxamidehydrochloride] |
| – | ≤ 1 | O=C(Nc1ccc(-c2nnc(NCCCN3CCCCC3)o2)cc1)c1cccnc1 [Example 13, N-[4-(5-{[3-(1-Piperidinyl)propyl]amino}-1,3,4-oxadiazol-2-yl)phenyl]-3-pyridinecarboxamidehydrochloride] |
| – | ≤ 1 | O=C(Nc1ccc(-c2nnc(NCCCN3CCCCC3)o2)cc1)c1ccc(Cl)cc1 [Example 18, 4-Chloro-N-[4-(5-{[3-(1-piperidinyl)propyl]amino}-1,3,4-oxadiazol-2-yl)phenyl]benzamidehydrochloride] |
| – | ≤ 1 | COc1cc(NC(=O)C2CCCCC2)ccc1-c1nnc(NCCCN2CCCCC2)o1 [Example 28, N-[3-(methyloxy)-4-(5-{[3-(1-piperidinyl)propyl]amino}-1,3,4-oxadiazol-2-yl)phenyl]cyclohexanecarboxamide] |
| – | ≤ 1 | O=C(Nc1ccc(-c2nnc(NCCCN3CCCC3)o2)c(F)c1)c1ccccc1F [Example 47, 2-fluoro-N-[3-fluoro-4-(5-{[3-(1-pyrrolidinyl)propyl]amino}-1,3,4-oxadiazol-2-yl)phenyl]benzamide] |
| – | ≤ 0.1 | O=C(Nc1ccc(-c2nnc(NCCCCN3CCCC3)o2)c(F)c1)c1ccccc1F [Example 48, 2-fluoro-N-[3-fluoro-4-(5-{[4-(1-pyrrolidinyl)butyl]amino}-1,3,4-oxadiazol-2-yl)phenyl]benzamide] |

More lines, now with the values behind:

| SMILES | activity in the alpha 7 assay (alpha 7 assay described in the Examples) | EC50 [µM] |
| --- | --- | --- |
| CC(C)(C)C(=O)Nc1ccc(-c2nnc(NCCCN3CCCCC3)o2)cc1 [2,2-dimethyl-N-[4-(5-{[3-(1-piperidinyl)propyl]amino}-1,3,4-oxadiazol-2-yl)phenyl]propanamide] | not found to have activity | – |
| CCN(CC)CCCNc1nnc(-c2ccc(NC(=O)c3ccccc3F)cc2OC)o1 [Example 2, N-[4-(5-{[3-(Diethylamino)propyl]amino}-1,3,4-oxadiazol-2-yl)-3-(methyloxy)phenyl]-2-fluorobenzamidehydrochloride] | – | ≤ 1 |
| O=C(Nc1ccc(-c2nnc(NCCCN3CCCCC3)o2)cc1)c1ccsc1 [Example 10, N-[4-(5-{[3-(1-Piperidinyl)propyl]amino}-1,3,4-oxadiazol-2-yl)phenyl]-3-thiophenecarboxamidehydrochloride] | – | ≤ 1 |
| O=C(Nc1ccc(-c2nnc(NCCCN3CCCCC3)o2)cc1)c1cccc(Cl)c1 [Example 12, 3-Chloro-N-[4-(5-{[3-(1-piperidinyl)propyl]amino}-1,3,4-oxadiazol-2-yl)phenyl]benzamidehydrochloride] | – | ≤ 1 |
| O=C(Nc1ccc(-c2nnc(NCCCN3CCCCC3)o2)cc1)c1cccc(F)c1F [Example 16, 2,3-Difluoro-N-[4-(5-{[3-(1-piperidinyl)propyl]amino}-1,3,4-oxadiazol-2-yl)phenyl]benzamidehydrochloride] | – | ≤ 1 |
| O=C(Nc1ccc(-c2nnc(NCCCN3CCCCC3)o2)cc1)c1ccccn1 [Example 17, N-[4-(5-{[3-(1-Piperidinyl)propyl]amino}-1,3,4-oxadiazol-2-yl)phenyl]-2-pyridinecarboxamidehydrochloride] | – | ≤ 1 |
| O=C(Nc1ccc(-c2nnc(NCCCCN3CCC(F)CC3)o2)c(F)c1)c1ccccc1F [Example 26, 2-Fluoro-N-[3-fluoro-4-(5-{[4-(4-fluoro-1-piperidinyl)butyl]amino}-1,3,4-oxadiazol-2-yl)phenyl]benzamide] | – | ≤ 0.1 |
| COc1cc(NC(=O)c2ccccc2)ccc1-c1nnc(NCCCCN2CCCCC2)o1 [Example 32, N-[3-(methyloxy)-4-(5-{[4-(1-piperidinyl)butyl]amino}-1,3,4-oxadiazol-2-yl)phenyl]benzamide] | – | ≤ 0.1 |
| O=C(Nc1ccc(-c2nnc(NCCCCN3CCCCC3)o2)c(F)c1)c1ccccc1F [Example 46, 2-fluoro-N-[3-fluoro-4-(5-{[4-(1-piperidinyl)butyl]amino}-1,3,4-oxadiazol-2-yl)phenyl]benzamide] | – | ≤ 0.1 |
